In ChEMBL document CHEMBL1201862, “PubChem BioAssay data set” (2004):
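A five-concentration, 48-hour dose response in 96-well plates underlies each endpoint, interpolated linearly between surrounding concentrations. At the GI50, growth is halved.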 The source made the active and inactive calls. Rule as the data show it: active = GI50 up to about 1.1 µM and inactive = higher.

Columns and labels:
Assay in all cases: NCI anticancer screen, dose series, 48 h
A498 = system: A498
COLO 205 = system: COLO 205
DMS-114 = system: DMS-114
Malme-3M = system: Malme-3M
NCI-H522 = system: NCI-H522
RXF 393 = system: RXF 393
SF-539 = system: SF-539
SK-MEL-2 = system: SK-MEL-2
SN12C = system: SN12C
SNB-75 = system: SNB-75
U-251 = system: U-251
UACC-257 = system: UACC-257
SNB-78 = system: SNB-78
NCI-H226 = system: NCI-H226
SR = system: SR
DU-145 = system: DU-145
MDA-MB-231 = system: MDA-MB-231
MDA-MB-435 = system: MDA-MB-435
NCI/ADR-RES = system: NCI/ADR-RES
PC-3 = system: PC-3

Structure (SMILES) | GI50 (A498) | GI50 (COLO 205) | GI50 (DMS-114) | GI50 (Malme-3M) | GI50 (NCI-H522) | GI50 (RXF 393) | GI50 (SF-539) | GI50 (SK-MEL-2) | GI50 (SN12C) | GI50 (SNB-75) | GI50 (U-251) | GI50 (UACC-257) | GI50 (SNB-78) | GI50 (NCI-H226) | GI50 (SR) | GI50 (DU-145) | GI50 (MDA-MB-231) | GI50 (MDA-MB-435) | GI50 (NCI/ADR-RES) | GI50 (PC-3)
CCCCCCCCCCNCCSSCc1ccc(Cl)cc1 | 10.2 µM (inactive) | 2.39 µM (inactive) | 1.57 µM (inactive) | 2.95 µM (inactive) | 1.61 µM (inactive) | 3.3 µM (inactive) | 1.95 µM (inactive) | 0.352 µM (active) | 1.91 µM (inactive) | 5.86 µM (inactive) | 3.27 µM (inactive) | 0.714 µM (active) | – | – | – | – | – | – | – | –
C#CC[N+](C)(CC#C)CC#C | – | > 100 µM (inactive) | > 100 µM (inactive) | > 100 µM (inactive) | > 100 µM (inactive) | > 100 µM (inactive) | – | > 100 µM (inactive) | > 100 µM (inactive) | > 100 µM (inactive) | – | > 100 µM (inactive) | > 100 µM (inactive) | – | – | – | – | – | – | –
Cc1ccc(C2=C(c3ccccc3)C(O)(c3ccc(C)cc3)C(c3ccccc3)=C2c2ccc(C)cc2)cc1 | > 100 µM (inactive) | > 100 µM (inactive) | > 100 µM (inactive) | > 100 µM (inactive) | – | – | > 100 µM (inactive) | > 100 µM (inactive) | > 100 µM (inactive) | – | > 100 µM (inactive) | > 100 µM (inactive) | > 100 µM (inactive) | – | – | – | – | – | – | –
Cc1ccc(C(=O)/C=C/c2ccccc2Cl)cc1 | 25.4 µM (inactive) | 24.2 µM (inactive) | 18.3 µM (inactive) | 23.5 µM (inactive) | 14 µM (inactive) | – | 21.2 µM (inactive) | – | 20.6 µM (inactive) | 19.1 µM (inactive) | 14.7 µM (inactive) | 15.4 µM (inactive) | 21.7 µM (inactive) | 25.1 µM (inactive) | – | – | – | – | – | –
C[N+](C)(C)CC1CCC(C[N+](C)(C)C)C1=NO (centres undefined) | > 100 µM (inactive) | > 100 µM (inactive) | – | > 100 µM (inactive) | > 100 µM (inactive) | > 100 µM (inactive) | > 100 µM (inactive) | > 100 µM (inactive) | > 100 µM (inactive) | > 100 µM (inactive) | > 100 µM (inactive) | > 100 µM (inactive) | > 100 µM (inactive) | > 100 µM (inactive) | > 100 µM (inactive) | – | – | – | – | –
Clc1ccccc1C(Nc1cnccn1)Nc1cnccn1 | > 100 µM (inactive) | > 100 µM (inactive) | – | > 100 µM (inactive) | > 100 µM (inactive) | > 100 µM (inactive) | > 100 µM (inactive) | > 100 µM (inactive) | > 100 µM (inactive) | 96.6 µM (inactive) | > 100 µM (inactive) | > 100 µM (inactive) | – | > 100 µM (inactive) | 0.07 µM (active) | > 100 µM (inactive) | > 100 µM (inactive) | 8.59 µM (inactive) | > 100 µM (inactive) | > 100 µM (inactive)
O=C1[C@H]2ON(c3ccccc3)C(c3ccccc3F)[C@H]2C(=O)N1c1ccc(Cc2ccc(N3C(=O)[C@@H]4ON(c5ccccc5)C(c5ccccc5F)[C@@H]4C3=O)cc2)cc1 (some centres undefined) | > 100 µM (inactive) | > 100 µM (inactive) | > 100 µM (inactive) | > 100 µM (inactive) | – | 55.2 µM (inactive) | > 100 µM (inactive) | > 100 µM (inactive) | > 100 µM (inactive) | > 100 µM (inactive) | > 100 µM (inactive) | 45.1 µM (inactive) | > 100 µM (inactive) | > 100 µM (inactive) | – | – | – | – | – | –
O=C(OCCC12CC3CC(CC(C3)C1)C2)c1ccc(NCc2cc(O)ccc2O)cc1 | 1.9 µM (inactive) | 0.34 µM (active) | – | 1.85 µM (inactive) | 0.148 µM (active) | 0.638 µM (active) | 0.652 µM (active) | 1.24 µM (inactive) | 0.719 µM (active) | 1.38 µM (inactive) | 0.445 µM (active) | 0.604 µM (active) | – | 2.92 µM (inactive) | 0.404 µM (active) | 3.3 µM (inactive) | 1.88 µM (inactive) | 1.26 µM (inactive) | 0.687 µM (active) | 0.573 µM (active)
NC1=NN(c2ccccc2)C(=O)C1C(=O)C(=O)Nc1cccc(C(F)(F)F)c1 (centres undefined) | > 100 µM (inactive) | > 100 µM (inactive) | > 100 µM (inactive) | > 100 µM (inactive) | > 100 µM (inactive) | – | > 100 µM (inactive) | > 100 µM (inactive) | > 100 µM (inactive) | – | > 100 µM (inactive) | > 100 µM (inactive) | > 100 µM (inactive) | > 100 µM (inactive) | – | – | – | – | – | –
CC1(C)CC(C2CC(C)(C)CC(C)(C)[C@H]2O)[C@@H](O)C(C)(C)C1 (some centres undefined) | – | > 100 µM (inactive) | > 100 µM (inactive) | > 100 µM (inactive) | > 100 µM (inactive) | – | > 100 µM (inactive) | – | > 100 µM (inactive) | – | > 100 µM (inactive) | > 100 µM (inactive) | – | > 100 µM (inactive) | > 100 µM (inactive) | – | – | – | – | –
